Reference: patent US4478840A, “Appetite suppressing compositions and methods” (E. I. Du Pont de Nemours and Company, priority 1983, dated 1984)

Assays:
rats = details: sweetened Enfamil baby formula; subcutaneous; cited from earlier work
Female CF1 mice = assay: Anorexia test, oral dose route (milk consumption of fasted mice); type: in vivo, mouse; details: for ED50: Mus musculus, oral, female CF1 mice fasted 17 to 21 hours, dose at which treated mice would consume 50% as much milk as controls, milk 1/2 h after dose, 30 min count; for food intake in mice: summary statement on Table I
Experimental: Female CF1 mice, which had been fasted for 17 to 21 hours, were dosed orally with the test compound (ten or more mice per dose). One-half hour later, each mouse was transferred to an individual compartment (13.3 cm×12.7 cm×12.7 cm) with a 0.64 cm×0.64 cm wire mesh floor. Inside each compartment was a brass bar (13 cm×1.2 cm×1.2 cm) in the top of which were ten shallow, round spot depressions (0.8 cm diameter). Each depression contained 0.05 ml of 50% sweetened condensed milk.
Thirty minutes after the mice were transferred into the compartments, the number of milk spots each mouse had consumed was counted. Fractions of spots consumed also were estimated and counted. The percent anorexigenic effect was estimated by comparison of the mean number of spots of milk consumed per mouse at a given dose with the mean number of spots consumed per vehicle-treated control mouse. Dose-response curves were plotted and from these the ED50%, the dose at which treated mice would be expected to consume 50% as much milk as control mice, was calculated.

Male CF1 mice = assay: Anorexia test, subcutaneous dose route (milk consumption of fasted mice); type: in vivo; details: Mus musculus, sc, male CF1 mice fasted 17 to 21 hours, dose at which treated mice would consume 50% as much milk as controls, milk 7 1/2 to 15 min after dose, 10 min count
Experimental: Male CF1 mice, which had been fasted for 17 to 21 hours, were dosed subcutaneously with the test compound (20 mice per dose) and placed into an individual compartment (13.3 cm×12.7 cm×12.7 cm) with a 0.64 cm×0.64 cm wire mesh floor. 71/2 to 15 minutes later a black Lucite bar (13 cm×1.2 cm×1.2 cm) in the top of which were ten shallow round spot depressions (0.8 cm diameter) was inserted into each compartment. Each depression contained 0.05 ml of 50% sweetened condensed milk.
Ten minutes after the milk was presented to the mice, the number of milk spots each mouse had consumed was counted. Fractions of spots consumed also were estimated and counted. Dose-response curves were plotted and from these the ED50%, the dose at which treated mice would be expected to consume 50% as much milk as control mice, was calculated.

mammals = details: oral; cited from earlier work
[1] = Analgesic/narcotic antagonist property; details: stated in words, no test described
food-deprived rats = details: cited from earlier work
food-deprived mice = details: cited from earlier work

Row | Structure (SMILES) | fluid intake of rats (rats) | ED50 (Female CF1 mice) | ED50 (Male CF1 mice) | further results
1 | C=CCN1CC[C@]23c4c5ccc(O)c4O[C@H]2[C@@H](O)C=C[C@H]3[C@H]1C5 [nalorphine, N-allylnormorphine] | reduced |  |  | 
2 | Cl.Oc1ccc2c3c1O[C@H]1CCC[C@@]4(O)[C@@H](C2)N(CC2CCC2)CC[C@]314 [Example 2, 17-Cyclobutylmethyl-4,5α-epoxymorphinan-3,14-diol, Hydrochloride] |  | 84 mg/kg | 3.2 mg/kg | food intake in mice (Female CF1 mice): decreased food intake
3 | O=C1CC[C@@]2(O)[C@H]3Cc4ccc(O)c5c4[C@@]2(CCN3CC2CC2)[C@H]1O5 [Naltrexone, (-)-17-cyclopropylmethyl-4,5α-epoxy-3,14-dihydroxymorphinan-6-one] | reduced | 3 mg/kg | 0.4 mg/kg | appetite suppression (mammals): appetite suppression
4 | Oc1ccc2c3c1O[C@H]1CCC[C@@]4(O)[C@@H](C2)N(CC2CC2)CC[C@]314 [17-cyclopropylmethyl-4,5α-epoxymorphinan-3,14-diol] |  |  |  | analgesic/narcotic antagonist property [1]: narcotic antagonist
5 | Cl.Oc1ccc2c3c1O[C@H]1CCC[C@@]4(O)[C@@H](C2)N(CC2CC2)CC[C@]314 [Example 1, 17-Cyclopropylmethyl-4,5α-epoxymorphinan-3,14-diol, Hydrochloride] |  | 2.5 mg/kg |  | food intake in mice (Female CF1 mice): decreased food intake
6 | Oc1ccc2c3c1O[C@H]1CCC[C@@]4(O)[C@@H](C2)N(CC2CCC2)CC[C@]314 [17-cyclobutylmethyl-4,5α-epoxymorphinan-3,14-diol] |  |  |  | analgesic/narcotic antagonist property [1]: mixed analgesic/narcotic antagonist
7 | C=CCN1CC[C@]23c4c5ccc(O)c4O[C@H]2C(=O)CC[C@@]3(O)[C@H]1C5 [naloxone, N-allyl-14-hydroxy-7,8-dihydronormorphinone] | reduced |  |  | eating by food-deprived rats (food-deprived rats): suppresses eating; eating by food-deprived mice (food-deprived mice): not by food-deprived mice
8 | CCNC(C)Cc1cccc(C(F)(F)F)c1 (centres unmarked) [Fenfluramine] |  | 13.5 mg/kg | 7.6 mg/kg | 
